The record followed here is US20250368635A1, “HETEROARYL DERIVATIVE COMPOUND, AND USES THEREOF” (VORONOI, INC., priority 2022, published 2025).

Bounds are passed on as bounds.

The experiment has as its system Ba/F3 cells expressing EGFR Del19/C797S (EGFR DC). Nature of the experiment: Inhibition of proliferation of Ba/F3 cells expressing EGFR Del19/C797S (CellTiter-Glo, 72 h). The class given is cell-based. To be noted: Mus musculus, BaF3, 72 hours treatment. The protocol: The following experiment was performed to evaluate the inhibitory activity of the compounds according to the present invention on the proliferation of Ba/F3 cells expressing EGFR Del19/C797S (EGFR DC) and EGFR L858R/C797S (EGFR LC) mutations.
Ba/F3 cells were cultured using medium (RPMI-1640) containing 10% fetal bovine serum (FBS) and 5 ng/ml IL-3 (R&D Systems). The transduced Ba/F3 cells were cultured by adding 1 μg/ml puromycin (Invitrogen) to the same medium.
24 hours prior to treatment with compounds, 3,000 to 5,000 cells were seeded on a well plate (white clear bottom 96 well plate, Corning). The compounds were diluted in dimethyl sulfoxide (3-fold dilution, total of 12 concentrations) and injected at 1 μl each so that the final concentration was 0.2 nM to 5 μM. After 72 hours post treatment with compounds, living cells were stored at room temperature for 10 minutes using CellTiter-Glo luminescent cell-viability reagent (Promega), and the luminescence intensity thereof was measured using a reader (Synergy Neo, Biotek). Each test was repeated three times. The result values were calculated as a cell growth rate (%) compared to the control group. A graph was created using the GraphPad Prism version 8.3.0 program, and GI50 values were calculated.
Background: Cellular ATP, detected with luciferase, serves as a proxy for viable cell number.
For orientation: GI50 means the concentration giving 50% growth inhibition. For the compound `COc1cc(N2CCOCC2)c(-c2cn(C)nc2F)cc1Nc1cc(N2OCC[C@@H]2c2cccc(F)c2F)ncn1` [Example 16, (R)-6-(3-(2,3-difluorophenyl)isoxazolidin-2-yl)-N-(5-(3-fluoro-1-methyl-1H-pyrazol-4-yl)-2-methoxy-4-morpholinophenyl)pyrimidin-4-amine], the concentration for 50% growth inhibition (GI50) is less than 100 nM. Regarding `COc1cc(N2CCC(C3COC3)CC2)c(-c2cn(C)nc2F)cc1Nc1cc(N2OCC[C@@H]2c2cccc(F)c2F)ncn1` [Example 17, (R)-6-(3-(2,3-difluorophenyl)isoxazolidin-2-yl)-N-(5-(3-fluoro-1-methyl-1H-pyrazol-4-yl)-2-methoxy-4-(4-(oxetan-3-yl)piperidin-1-yl)phenyl)pyrimidin-4-amine], the GI50 was in the range of 100 to 1000 nM. Consider `COc1cc(N2CCC3(CC2)CC(N(C)C)C3)c(-c2cnn(C)c2)cc1Nc1cc(N2OCC[C@@H]2c2cccc(F)c2F)ncn1` [Example 31, (R)-7-(4-((6-(3-(2,3-difluorophenyl)isoxazolidin-2-yl)pyrimidin-4-yl)amino)-5-methoxy-2-(1-methyl-1H-pyrazol-4-yl)phenyl)-N,N-dimethyl-7-azaspiro[3.5]nonan-2-amine], for which the GI50 is less than 100 nM.

With `COc1cc(N2CCC3(CCC(OC)CC3)CC2)c(-c2cnn(C)c2)cc1Nc1cc(N2OCC[C@@H]2c2cccc(F)c2F)ncn1` [Example 42, (R)-6-(3-(2,3-difluorophenyl)isoxazolidin-2-yl)-N-(2-methoxy-4-(9-methoxy-3-azaspiro[5.5]undecan-3-yl)-5-(1-methyl-1H-pyrazol-4-yl)phenyl)pyrimidin-4-amine], the concentration for 50% growth inhibition (GI50) is 100 to 1000 nM. Regarding `COc1cc(N2CCOC3(CC3)C2)c(-c2cnn(C)c2)cc1Nc1cc(N2OCC[C@@H]2c2cccc(F)c2F)ncn1` [Example 43, (R)-6-(3-(2,3-difluorophenyl)isoxazolidin-2-yl)-N-(2-methoxy-5-(1-methyl-1H-pyrazol-4-yl)-4-(4-oxa-7-azaspiro[2.5]octan-7-yl)phenyl)pyrimidin-4-amine], the 50% growth inhibitory concentration (GI50) lay within 100 to 1000 nM. Regarding `COc1cc(N2C3COCC2C3)c(-c2cnn(C)c2)cc1Nc1cc(N2OCC[C@@H]2c2cccc(F)c2F)ncn1` [Example 44, N-(4-(3-oxa-6-azabicyclo[3.1.1]heptan-6-yl)-2-methoxy-5-(1-methyl-1H-pyrazol-4-yl)phenyl)-6-((R)-3-(2,3-difluorophenyl)isoxazolidin-2-yl)pyrimidin-4-amine], the GI50 lay within 100 to 1000 nM. To `COc1cc(N2CCC3(CCOCC3)C2)c(-c2cnn(C)c2)cc1Nc1cc(N2OCC[C@@H]2c2cccc(F)c2F)ncn1` [Example 45, (R)-6-(3-(2,3-difluorophenyl)isoxazolidin-2-yl)-N-(2-methoxy-5-(1-methyl-1H-pyrazol-4-yl)-4-(8-oxa-2-azaspiro[4.5]decan-2-yl)phenyl)pyrimidin-4-amine] belongs 100 to 1000 nM.

With `COc1cc(N2CCC(N3CCOCC3)CC2)c(-c2cnn(C)c2)cc1Nc1cc(N2OCC[C@@H]2c2cccc(F)c2F)ncn1` [Example 46, (R)-6-(3-(2,3-difluorophenyl)isoxazolidin-2-yl)-N-(2-methoxy-5-(1-methyl-1H-pyrazol-4-yl)-4-(4-morpholinopiperidin-1-yl)phenyl)pyrimidin-4-amine], the GI50 is less than 100 nM. `COc1cc2c(cc1Nc1cc(N3OCC[C@@H]3c3cccc(F)c3F)ncn1)-c1cnn(C)c1CCN2C(C)C` [Example 47, (R)-N-(6-(3-(2,3-difluorophenyl)isoxazolidin-2-yl)pyrimidin-4-yl)-6-isopropyl-8-methoxy-3-methyl-3,4,5,6-tetrahydrobenzo[b]pyrazolo [4,3-d]azepin-9-amine]: the concentration for 50% growth inhibition (GI50) was in the range of 100 to 1000 nM. `COc1cc(N2CCC(N3CC(F)(F)C3)CC2)c(-c2cnn(C)c2)cc1Nc1cc(N2OCC[C@@H]2c2cccc(F)c2F)ncn1` [Example 55, (R)-N-(4-(4-(3,3-difluoroazetidin-1-yl)piperidin-1-yl)-2-methoxy-5-(1-methyl-1H-pyrazol-4-yl)phenyl)-6-(3-(2,3-difluorophenyl)isoxazolidin-2-yl)pyrimidin-4-amine]: the GI50 is less than 100 nM. For `COc1cc(N2CCC3(CC2)CCN(C2COC2)CC3)c(-c2cnn(C)c2)cc1Nc1cc(N2OCC[C@@H]2c2cccc(F)c2F)ncn1` [Example 56, (R)-6-(3-(2,3-difluorophenyl)isoxazolidin-2-yl)-N-(2-methoxy-5-(1-methyl-1H-pyrazol-4-yl)-4-(9-(oxetan-3-yl)-3,9-diazaspiro[5.5]undecan-3-yl)phenyl)pyrimidin-4-amine], the GI50 was less than 100 nM. Take `COc1cc(C23CCOCC2C3)c(-c2cnn(C)c2)cc1Nc1cc(N2OCC[C@@H]2c2cccc(F)c2F)ncn1` (stereo partly drawn) [Example 59, N-(4-(3-oxabicyclo[4.1.0]heptan-6-yl)-2-methoxy-5-(1-methyl-1H-pyrazol-4-yl)phenyl)-6-((R)-3-(2,3-difluorophenyl)isoxazolidin-2-yl)pyrimidin-4-amine]: the GI50 lay in the range of 100 to 1000 nM. For `COc1cc(C23CCOCC2C3(F)F)c(-c2cnn(C)c2)cc1Nc1cc(N2OCC[C@@H]2c2cccc(F)c2F)ncn1` (stereo partly drawn) [Example 60, N-(4-(7,7-difluoro-3-oxabicyclo[4.1.0]heptan-6-yl)-2-methoxy-5-(1-methyl-1H-pyrazol-4-yl)phenyl)-6-((R)-3-(2,3-difluorophenyl)isoxazolidin-2-yl)pyrimidin-4-amine], the concentration for 50% growth inhibition (GI50) lay in the range of 100 to 1000 nM. Turning to `COc1cc(N2CCC(N3CCC(F)(F)CC3)CC2)c(-c2cnn(C)c2)cc1Nc1cc(N2OCC[C@@H]2c2cccc(F)c2F)ncn1` [Example 61, (R)-N-(4-(4,4-difluoro-[1,4′-bipiperidin]-1′-yl)-2-methoxy-5-(1-methyl-1H-pyrazol-4-yl)phenyl)-6-(3-(2,3-difluorophenyl)isoxazolidin-2-yl)pyrimidin-4-amine], the concentration for 50% growth inhibition (GI50) was 100 to 1000 nM. Turning to `COc1cc(N2CCC3CCN(C)C3C2)c(-c2cnn(C)c2)cc1Nc1cc(N2OCC[C@@H]2c2cccc(F)c2F)ncn1` (stereo partly drawn) [Example 62, 6-((R)-3-(2,3-difluorophenyl)isoxazolidin-2-yl)-N-(2-methoxy-5-(1-methyl-1H-pyrazol-4-yl)-4-(1-methyloctahydro-6H-pyrrolo[2,3-c]pyridin-6-yl)phenyl)pyrimidin-4-amine], the 50% growth inhibitory concentration (GI50) was less than 100 nM. To `COc1cc(N2CCC(CN3CCC(CC(F)(F)F)C3)CC2)c(-c2cnn(C)c2)cc1Nc1cc(N2OCC[C@@H]2c2cccc(F)c2F)ncn1` (stereo partly drawn) [Example 63, 6-((R)-3-(2,3-difluorophenyl)isoxazolidin-2-yl)-N-(2-methoxy-5-(1-methyl-1H-pyrazol-4-yl)-4-(4-((3-(2,2,2-trifluoroethyl)pyrrolidin-1-yl)methyl)piperidin-1-yl)phenyl)pyrimidin-4-amine] belongs less than 100 nM. For `COc1cc(N2CCC(N3CC[C@@H](OC)[C@@H](F)C3)CC2)c(-c2cnn(C)c2)cc1Nc1cc(N2OCC[C@@H]2c2cccc(F)c2F)ncn1` [Example 64, 6-((R)-3-(2,3-difluorophenyl)isoxazolidin-2-yl)-N-(4-((3,4R)-3-fluoro-4-methoxy-[1,4′-bipiperidin]-1′-yl)-2-methoxy-5-(1-methyl-1H-pyrazol-4-yl)phenyl)pyrimidin-4-amine] the value was 100 to 1000 nM.
